The text below walks through data of ChEMBL document CHEMBL3396977, “Design, synthesis and docking study of novel tetracyclic oxindole derivatives as α-glucosidase inhibitors” (Bioorg Med Chem Lett, 2015).

The structures appear in SMILES notation. Active and inactive are the calls of the source. The rule behind the calls is not given here.

The target in experiment [1] is Oligo-1,6-glucosidase IMA1 (Saccharomyces cerevisiae S288c) (UniProt P53051). Nature of the experiment: Ratio of acarbose IC50 to compound IC50 for bakers yeast alpha-glucosidase using p-nitrophenyl-alpha-D-glucopyranoside as substrate after 30 mins by spectrophotometry.
Oligo-1,6-glucosidase IMA1 (Saccharomyces cerevisiae S288c), sequence (P53051 whole entry): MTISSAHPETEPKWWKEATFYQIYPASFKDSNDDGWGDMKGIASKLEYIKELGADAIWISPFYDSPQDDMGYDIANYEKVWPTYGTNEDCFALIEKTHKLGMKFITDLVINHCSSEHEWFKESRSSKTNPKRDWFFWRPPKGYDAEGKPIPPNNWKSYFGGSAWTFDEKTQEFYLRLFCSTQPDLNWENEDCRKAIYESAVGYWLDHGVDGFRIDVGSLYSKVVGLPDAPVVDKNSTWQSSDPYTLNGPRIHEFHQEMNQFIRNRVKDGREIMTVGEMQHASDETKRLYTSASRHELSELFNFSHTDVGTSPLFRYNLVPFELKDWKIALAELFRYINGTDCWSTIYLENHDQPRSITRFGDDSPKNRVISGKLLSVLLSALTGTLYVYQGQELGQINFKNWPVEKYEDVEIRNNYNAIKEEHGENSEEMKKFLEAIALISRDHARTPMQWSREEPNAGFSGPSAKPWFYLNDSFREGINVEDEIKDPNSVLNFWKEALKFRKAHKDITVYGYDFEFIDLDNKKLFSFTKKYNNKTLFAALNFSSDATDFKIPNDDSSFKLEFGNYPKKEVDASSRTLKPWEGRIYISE
Experiment [2] addresses Alpha-glucosidase MAL12 (Saccharomyces cerevisiae S288c, UniProt P53341). Nature of the experiment: Inhibition of bakers yeast alpha-glucosidase using p-nitrophenyl-alpha-D-glucopyranoside as substrate after 30 mins by spectrophotometry.
Experiment [3] concerns the target Oligo-1,6-glucosidase IMA1 (Saccharomyces cerevisiae S288c) (UniProt P53051). Kind of experiment: Competitive inhibition of bakers yeast alpha-glucosidase using p-nitrophenyl-alpha-D-glucopyranoside as substrate at 0.5 to 5 uM after 30 mins by Lineweaver-Burk plot analysis.

Alpha-glucosidase MAL12, sequence (P53341 whole entry): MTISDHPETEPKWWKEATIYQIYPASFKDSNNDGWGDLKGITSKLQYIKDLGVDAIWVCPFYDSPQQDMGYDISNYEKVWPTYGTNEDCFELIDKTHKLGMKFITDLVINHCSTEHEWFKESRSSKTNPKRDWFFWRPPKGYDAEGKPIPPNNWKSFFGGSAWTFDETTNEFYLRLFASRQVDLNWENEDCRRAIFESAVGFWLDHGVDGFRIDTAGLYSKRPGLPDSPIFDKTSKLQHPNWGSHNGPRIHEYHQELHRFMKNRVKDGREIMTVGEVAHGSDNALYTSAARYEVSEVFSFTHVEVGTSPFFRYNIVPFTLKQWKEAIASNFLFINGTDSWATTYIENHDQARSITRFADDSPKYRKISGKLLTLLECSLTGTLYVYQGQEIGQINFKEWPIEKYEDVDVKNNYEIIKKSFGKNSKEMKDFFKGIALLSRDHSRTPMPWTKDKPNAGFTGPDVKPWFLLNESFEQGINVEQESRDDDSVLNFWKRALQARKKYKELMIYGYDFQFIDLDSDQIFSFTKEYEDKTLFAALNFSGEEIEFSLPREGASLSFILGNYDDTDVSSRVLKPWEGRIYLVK

The term IC50 denotes the midpoint of a concentration-inhibition curve. Higher therefore signals lower potency. `O=C(O)CC1Oc2ccccc2-c2ccc3c(c21)C(=O)C(=O)N3Cc1ccc(C(F)(F)F)cc1` (configuration not stated): the Ratio IC50 in experiment [1] worked out at 20. In experiment [2], this compound displayed an IC50 of 4.8 µM. For the same compound, the inhibition result in experiment [3] is “Active”.
In experiment [2], `COC(=O)CC1Oc2ccccc2-c2cc(C)c3c(c21)C(=O)C(=O)N3C` (configuration not stated) returned an IC50 of 34.8 µM.
`O=C(O)CC1Oc2ccccc2-c2ccc3c(c21)C(=O)C(=O)N3Cc1ccccc1` (configuration not stated): the IC50 in experiment [2] was 16 µM.
On the same count and under the same terms, in the case of `COC(=O)CC1Nc2ccccc2-c2ccc3c(c21)C(=O)C(=O)N3Cc1ccc(OC)cc1` (configuration not stated) it was 45.3 µM.
Same read-out and setting: in the case of `COC(=O)CC1Nc2ccccc2-c2ccc3c(c21)C(=O)C(=O)N3C` (configuration not stated) it was 287 µM; in that of `CN1C(=O)C(=O)c2c1ccc1c2C(CC(=O)O)Nc2ccccc2-1` (configuration not stated), 187 µM.
For `COC(=O)CC1c2c(ccc3c2C(=O)C(=O)N3C)-c2ccccc2N1S(=O)(=O)c1ccc(F)cc1` (configuration not stated), in experiment [2], half-maximal inhibition (IC50) was put at 42.9 µM.
Regarding `COC(=O)CC1Oc2ccccc2-c2ccc3c(c21)C(=O)C(=O)N3Cc1ccc(OC)cc1` (configuration not stated), the IC50 in experiment [2] came out at 32.3 µM. The IC50 values of the last two compounds are within 1.5-fold of each other.
With `CN1C(=O)C(=O)c2c1ccc1c2C(CC(=O)O)Oc2ccccc2-1` (configuration not stated), the IC50 in experiment [2] came out at 29 µM.
In experiment [2], `COC(=O)CC1Oc2ccccc2-c2cc(C)c3c(c21)C(=O)C(=O)N3Cc1ccccc1` (configuration not stated) gave an IC50 of 39.3 µM.
`COC(=O)CC1c2c(ccc3c2C(=O)C(=O)N3C)-c2ccccc2N1C(=O)c1ccccc1` (configuration not stated) displayed an IC50 in experiment [2] of 150 µM.
The compound `COC(=O)CC1Oc2ccccc2-c2ccc3c(c21)C(=O)C(=O)N3Cc1ccccc1` (configuration not stated) gave an IC50 in experiment [2] of 12.1 µM.
In experiment [2], `COC(=O)CC1Oc2ccccc2-c2ccc3c(c21)C(=O)C(=O)N3Cc1ccc(C(F)(F)F)cc1` (configuration not stated) returned an IC50 of 15.7 µM.
On the same count and under the same terms, in the case of `COC(=O)CC1c2c(ccc3c2C(=O)C(=O)N3C)-c2ccccc2N1C(C)=O` (configuration not stated) it was greater than 300 µM.
With `COC(=O)CC1c2c(ccc3c2C(=O)C(=O)N3C)-c2ccccc2N1S(=O)(=O)c1ccccc1` (configuration not stated), the IC50 in experiment [2] came to 77.1 µM.
The compound `COC(=O)CC1c2c(ccc3c2C(=O)C(=O)N3C)-c2ccccc2N1C(=O)c1ccc(Cl)cc1` (configuration not stated) yielded an IC50 in experiment [2] of 75.9 µM.
On to `COC(=O)CC1c2c(ccc3c2C(=O)C(=O)N3C)-c2ccccc2N1C(=O)c1ccc(OC)cc1` (configuration not stated), for which the IC50 in experiment [2] was 111 µM. This IC50 and that of the compound before are within 1.5-fold of each other.
Regarding `COC(=O)CC1Nc2ccccc2-c2cc(C)c3c(c21)C(=O)C(=O)N3C` (configuration not stated), the IC50 in experiment [2] turned out to be 117 µM.
In turn, `COC(=O)CC1Nc2ccccc2-c2ccc3c(c21)C1(OCC(C)(C)CO1)C(=O)N3C` (configuration not stated) displayed an IC50 in experiment [2] greater than 300 µM.
Take `COC(=O)CC1Oc2ccccc2-c2ccc3c(c21)C(=O)C(=O)N3C` (configuration not stated): in experiment [2], the IC50 worked out at 105 µM.
